System: acute lymphocytic leukemia (ALL), Philadelphia chromosome positive, with bone marrow failure
Assay: Rifampicin treatment of a single patient with relapsed acute lymphocytic leukemia and end stage bone marrow failure
Type: in vivo, human
Procedure: The single leukemia patient studied, and reported here, was a person who presented with acute lymphocytic leukemia (ALL), Philadelphia chromosome positive, who was converted to remission with a stem cell transplant from a matching sibling. Within one year, the leukemia reverted to an active form, and they were treated with all anti-leukemic agents known, and these included several experimental agents from MD Anderson Hospital in Houston.
They developed diabetes associated with steroids, and right maxillary sinus infection with a species of Mucorales. They underwent debridement of their sinus, with removal of bone and tissue up to the floor of the […] orbit. The sense of smell had been lost during the mucor infection. Their condition worsened in the Houston hospital. They developed bone marrow failure, and was transferred by air ambulance in a bed to their home in the Chicago area with instructions for terminal hospice care. They were bedridden, unable to sit up, and appeared moribund.
The laboratory findings at that time included:
The present inventor, who is a physician, is a cousin of the patient. After informed consent, which included a description of the experience of the inventor, the patient was started on rifampicin (rifampin) 600 mg daily not within 2½ hours of meals. This treatment was not part of any protocol, but was a private request to the inventor.

[1] = single ALL patient, rifampicin 600 mg daily
[2] = single ALL patient, rifampicin 600 mg daily, time after start of treatment

Substance: Rifampicin
- white cell levels (mature leukocytes and lymphocytes) (approximately 5 weeks after treatment began, rifampicin 600 mg daily): continued at normal levels
- platelet counts over time (FIG. 3) (patient presenting with acute lymphocytic leukemia treated with rifampicin): increase in platelet counts over time
- white cell counts over time (FIG. 4) (same patient and time course as FIG. 3): increase in white cell counts
- clinical condition (strength, sitting, standing, short walks) [1]: marked clinical improvement
- platelet drop leading to temporary discontinuation (suspected platelet agglutination) [1]: transient drop in platelets
- time until patient began to show bone marrow recovery [2]: ≤ 2 weeks
- time until significant parameters of bone marrow remission had developed [2]: ≤ 6 weeks
- platelets, level reached on treatment (single ALL patient, rifampicin 600 mg daily, 11K before treatment): 48 K
